Measured values from patent publication US20230340364A1, “Fabric Softening Compositions” (Colgate-Palmolive Company, priority 2020, published 2023).

Experiment: Dispersibility of the preservative into the finished product
Type: physicochemical
Conditions: preservative post-added (IPBC 0.2%, DGH 0.1%)
Description: For 90 kg batch, initial 20% of water is heated to 47.7° C., the agitation is set to 32.5 Hz, then color (1 min of agitation), lactic acid (1 min of agitation), etidronic acid (1 min of agitation) and PQ7 (3 min of agitation) is added. Afterward, the pre-heated esterquat at 60-65° C. is added for 10 seconds and mixture for 5 min. After esterquat addition, the 75% of the remaining water (15° C.) is added and mixed for 5 min more. The final composition is completed with the addition of the rest of the components keeping the agitation at 35 Hz; thickener (10 min of agitation), blend of slurry fragrance capsules (water/capsules; 10:1) (5 min of agitation) and oil perfume (10 min of agitation). For the reference sample, 5% of additional water is post-added to the mixture (5 min of agitation). In the case of the control sample, 0.02% of DPIII is post added with the remaining water to cover the % of hole (5 min of agitation). For the alternative test compositions with IPBC, IPBC is post-added at 0.2% as is. […]
The negative control, positive control, Test composition 1, and Test composition 2, described in Table 1 of Example 1 are first evaluated for their dispersibility into the product and their impact on the viscosity, pH and stability (predictive methods). […] No significant difference in viscosity, pH and stability are identified for all the evaluated samples.

SMILES	dispersibility by being directly post-added into the finished product
CCCCNC(=O)OCC#CI [IPBC, 3-iodo-2-propynyl butylcarbamate]	acceptable dispersibility
CCCCCCCCCCCCNC(=N)N.Cl [DGH, Dodecylguanidinee Hydrochloride]	acceptable dispersibility
